The values that follow come from PubChem BioAssay AID1996.

The structures appear in SMILES notation. Values after ≈ are worked out from the molar mass of the structure shown. A value given as a limit tells only on which side of the number the result lay.

For the data set the following is noted: buffer; pH 7.4; 200.0 µM.
Regarding `CC1CCCCC1NC(=O)COC(=O)COc1ccccc1F` (stereo not drawn), the kinetic solubility came out at 35.3 µg/mL (≈ 109 µM).
Compound `O=C(NCc1ccc2c(c1)OCO2)C(=O)Nc1ccccc1` showed a solubility (kinetic) of 0.5 µg/mL (≈ 1.68 µM).
For the compound `CCOC(=O)c1cn2nc(N3CCCCC3)ccc2n1`, the kinetic solubility was greater than 41.1 µg/mL.
Compound `Cc1ccc(SCC(=O)NCc2ccc(F)cc2)cc1` returned a solubility (kinetic) of 9.5 µg/mL (≈ 32.8 µM).
`CCNC(=O)C(=O)Nc1cc2c3c(c1)CCN3C(=O)CC2` showed a kinetic solubility greater than 43.1 µg/mL.
`O/N=C/c1ccnc(SCc2ccc(Cl)cc2)n1` returned a kinetic solubility of 1.2 µg/mL (≈ 4.29 µM).
`CCOc1ccc(/C=C(\C#N)C(=O)Nc2ccccn2)cc1` had a kinetic solubility of 2.7 µg/mL (≈ 9.2 µM).
As to `CC1CCCC(C)N1C(=O)COC(=O)c1ccc([N+](=O)[O-])o1` (stereo not drawn), the solubility (kinetic) was greater than 46.5 µg/mL.
In the case of `CC(OC(=O)c1cc2sccc2n1C)C(=O)NC(C)(C)C` (stereo not drawn), the kinetic solubility is greater than 46.3 µg/mL.
In turn, `O=Cc1cc2cc3c(cc2nc1Cl)OCCO3` showed a solubility (kinetic) of 0.9 µg/mL (≈ 3.61 µM).
With `COc1ccccc1NC(=O)CCn1c(=S)oc2ccccc21` the figure was 7 µg/mL (≈ 21.3 µM); with `COc1cc(OC)nc(Oc2cccc(Cl)c2C)n1`, 1.5 µg/mL (≈ 5.34 µM).
On to `O=C(NCC(=O)N1CCCCCCC1)c1ccccc1Cl`, for which the kinetic solubility is greater than 46.3 µg/mL.
The compound `O=C(COC(=O)COc1ccccc1)Nc1ccc(Br)cc1F` displayed a solubility (kinetic) of 12.3 µg/mL (≈ 32.2 µM).
With `O=C(O)c1ccc2c(c1)C(=O)N(c1ccc(C(=O)OCC(=O)c3ccccc3)cc1)C2=O`, the solubility (kinetic) stood at 45.4 µg/mL (≈ 106 µM).
`Cc1ccc(-c2nc3ccccc3[nH]c2=O)cc1` displayed a kinetic solubility of 1 µg/mL (≈ 4.23 µM).
In turn, `O=C1CCCN1CC(O)CS(=O)(=O)Cc1ccccc1` (stereo not drawn) had a solubility (kinetic) greater than 44.6 µg/mL.
As for `COc1ccccc1CN(C)CC(=O)Nc1cccc(S(=O)(=O)N2CCCC2)c1.O=C(O)C(=O)O`, the figure is 57.3 µg/mL; as for `O=C(COC(=O)CCC(=O)c1cccs1)Nc1ccc(F)c(F)c1F`, 8.1 µg/mL (≈ 21.8 µM); as for `CN(Cc1ccccc1)C(=O)c1ccc(COc2ccccc2)cc1`, 4.5 µg/mL (≈ 13.6 µM).
Compound `CC(C)(C)n1cnnc1Sc1ccc([N+](=O)[O-])cn1` returned a kinetic solubility greater than 41.9 µg/mL.
Turning to `CCCN1CCN(C(=S)Nc2sc(CC)cc2C(=O)OC)CC1`, the solubility (kinetic) is 0.6 µg/mL (≈ 1.69 µM).
`CN(C)C(=O)c1cc([N+](=O)[O-])ccc1O` had a kinetic solubility greater than 31.5 µg/mL.
On to `CCN(C(=O)N1CCOCC1)c1ccccc1C`, for which the kinetic solubility stood at 26 µg/mL (≈ 105 µM).
Compound `O=C(O)C(c1ccccc1)N1C(=O)c2ccccc2C1=O` (stereo not drawn) returned a kinetic solubility of 40.7 µg/mL (≈ 145 µM).
As for `O=C(Cc1ccccc1[N+](=O)[O-])Nc1ccc2c(c1)OCO2`, the figure is 14.6 µg/mL (≈ 48.6 µM); as for `NS(=O)(=O)c1cc(C(=O)OCC(=O)Nc2ccc3c(c2)OCO3)ccc1Cl`, 16.9 µg/mL (≈ 40.9 µM).
As for `O=C(O)CCc1ccc(S(=O)(=O)Nc2ccccc2N2CCCCC2)cc1`, the kinetic solubility is greater than 58.3 µg/mL.
For `CN(CC(=O)Nc1cccc(C(F)(F)F)c1)C1=NS(=O)(=O)c2ccccc21`, the kinetic solubility came out at 3.7 µg/mL (≈ 9.31 µM).
`CC(=O)N(Nc1ccccc1)c1ccccc1` yielded a kinetic solubility greater than 33.9 µg/mL.
Compound `COC(=O)c1ccc(NC(=O)Cn2c([N+](=O)[O-])cnc2C)cc1` displayed a kinetic solubility of 28.8 µg/mL (≈ 90.5 µM).
In turn, `O=[n+]1cc(-c2ccc(Cl)cc2)n([O-])c2c1CCC2` had a solubility (kinetic) greater than 39.4 µg/mL.
In the case of `COc1ccccc1Nc1ncnc2c1c(C)c(C)n2CCO`, the solubility (kinetic) turned out to be 15.4 µg/mL (≈ 49.3 µM).
Take `O=C(Nc1ccc2c(c1)OCCO2)c1ccc(Cl)cc1`: the solubility (kinetic) stood at 2.1 µg/mL (≈ 7.25 µM).
Compound `CCCCCCNC1=NCCS1` displayed a solubility (kinetic) of 22.9 µg/mL (≈ 123 µM).
Consider `CN(Cc1ccccc1F)c1ncnc2sccc12`, for which the kinetic solubility stood at 33.7 µg/mL (≈ 123 µM).
For `Cc1nc2ccccc2[nH]c1=O`, the solubility (kinetic) is greater than 24 µg/mL.
`CN1CCN(c2c(F)cc3c(=O)c(C(=O)[O-])cn4c3c2OCN4C)CC1` returned a kinetic solubility greater than 54.2 µg/mL.
`Clc1ccc(-c2cc(CN3CCOCC3)no2)cc1` showed a kinetic solubility greater than 41.8 µg/mL.
The compound `CC1(NC(=O)Nc2cccc3ccccc23)CCS(=O)(=O)C1` (stereo not drawn) gave a solubility (kinetic) of 43 µg/mL (≈ 135 µM).
With `CC1=C(C(=O)OC2CCCC(C)C2)C(c2ccccc2)NC(=O)N1` (stereo not drawn) the figure was 4.3 µg/mL (≈ 13.1 µM); with `C=CCN(CC=C)CC(=O)Nc1cccc(Oc2cnccn2)c1`, greater than 48.7 µg/mL.
`O=C(Cn1ncc2c([nH]c3ccccc32)c1=O)N1CCOCC1` had a kinetic solubility greater than 46.8 µg/mL.
Regarding `Cc1ccccc1OCCC(=O)OCC(=O)NC1CCCCC1`, the solubility (kinetic) was greater than 47.9 µg/mL.
In the case of `Cc1ccc(CNC(=O)CSc2nc3ccccc3[nH]2)cc1`, the solubility (kinetic) worked out at 31.1 µg/mL (≈ 99.9 µM).
Take `O=C(c1cnccn1)N1CCN(S(=O)(=O)c2cccc(Cl)c2)CC1`: the kinetic solubility is greater than 55 µg/mL.
As to `COc1ccc([N+](=O)[O-])cc1NC(=O)Cc1noc2ccccc12`, the kinetic solubility is 0.3 µg/mL (≈ 0.917 µM).
With `Fc1ccc(CNc2ccc(N3CCN(Cc4ccccc4)CC3)cc2)cc1` the figure was 14.6 µg/mL (≈ 38.9 µM); with `O=C1NC(=O)/C(=C\c2ccc(O)cc2O)S1`, greater than 35.6 µg/mL; with `O=C(Cn1c(=S)[nH]c2ncccc2c1=O)NCCc1ccccc1`, 2.1 µg/mL (≈ 6.17 µM).
As for `CC(=O)c1c(C)[nH]c(C(=O)Nc2ccc(Cl)cc2)c1C`, the solubility (kinetic) came out at 2.2 µg/mL (≈ 7.57 µM).
Consider `Cc1cccc(C(=O)OCC(=O)NCC2CCCO2)c1O` (stereo not drawn), for which the kinetic solubility was greater than 44 µg/mL.
In turn, `O=C(NCCO)C(=O)Nc1cc2c3c(c1)CCC(=O)N3CCC2` had a solubility (kinetic) greater than 47.6 µg/mL.
With `CN1CCN(C(=S)Nc2ccc(S(N)(=O)=O)cc2)CC1` the figure was greater than 47.2 µg/mL; with `COc1ccc(C(=O)CC(=O)C(=O)Nc2cc(C)ccc2C)cc1`, 11.2 µg/mL (≈ 34.4 µM); with `CCCN1CCC(NC(=S)Nc2ccc([N+](=O)[O-])cc2)CC1`, greater than 48.4 µg/mL.
Turning to `CN1c2ccc(Cl)cc2C(=O)NC1c1ccc([N+](=O)[O-])s1` (stereo not drawn), the kinetic solubility came out at 30.1 µg/mL (≈ 93 µM).
`O=C(Nc1cc(S(=O)(=O)N2CCOCC2)ccc1N1CCOCC1)c1c(F)cccc1Cl` returned a kinetic solubility of 2.2 µg/mL (≈ 4.55 µM).
`O=[N+]([O-])c1ccc(COP(=O)([O-])OCc2ccc([N+](=O)[O-])cc2)cc1.[Na+]` had a kinetic solubility of 58.2 µg/mL.
As for `O=S(=O)(/C=C/c1ccccc1)N1CCOCC1`, the figure is greater than 38 µg/mL; as for `Cc1ccc2[nH]cc(CCNC(=O)/C=C/c3ccco3)c2c1`, 36.9 µg/mL (≈ 125 µM); as for `CC1CCCC(NC(=O)COC(=O)/C=C/c2ccc([N+](=O)[O-])cc2)C1C` (stereo not drawn), 4.8 µg/mL (≈ 13.3 µM).
Consider `CCOc1cc(N2CCOCC2)c(OCC)cc1NC(=O)c1cc(S(=O)(=O)N2CCOCC2)ccc1F`, for which the kinetic solubility is 6.5 µg/mL (≈ 12.1 µM).
As for `Cc1cccc(OCC(=O)NCCNC(=O)c2ccco2)c1`, the figure is 45 µg/mL (≈ 149 µM); as for `CCOC(=O)C1(Cc2cccc(F)c2)CCN(C(=O)C2CCC2)CC1`, greater than 52.1 µg/mL; as for `Cl.c1ccc2c(CC3=NCCN3)cccc2c1`, greater than 37 µg/mL.
As for `Cc1nn(C)c(C)c1CNC(=O)Nc1ccc2c(c1)OCO2`, the figure is greater than 45.3 µg/mL; as for `N#Cc1cc2c([nH]c1=O)CCCC2`, greater than 26.1 µg/mL.
As for `Cc1cccc(OC(C)C(=O)Nc2ccc(S(=O)(=O)N3CCCC3)cc2)c1` (stereo not drawn), the figure is 16.4 µg/mL (≈ 42.2 µM); as for `COc1cc(S(=O)(=O)NC2CCCCC2C)ccc1F` (stereo not drawn), greater than 45.2 µg/mL.
As to `Cc1cc(/C=C2\NC(=S)NC2=O)c(C)n1-c1cccnc1`, the kinetic solubility is 4.8 µg/mL (≈ 16.1 µM).
As to `COc1ccc(S(=O)(=O)NCc2ccccc2)cc1Br`, the solubility (kinetic) came to 4.3 µg/mL (≈ 12.1 µM).
With `O=C(COC(=O)c1cc(Cl)nc(Cl)c1)NCCc1ccc(F)cc1`, the solubility (kinetic) was greater than 55.7 µg/mL.
